Test results published in patent US4665083A, “Iminothiazolidine derivatives” (priority 1984, dated 1987).
Read-outs that look alike come from different tables or passages of the source.

How the values were obtained:
nicotine lethality = experiment: Inhibition of nicotine spasm / nicotine lethality; format: in vivo, mice; conditions: for Therapeutical index (inhibition of nicotine lethality): LD50 and ED50 nicotine lethality; for ED50: Mus musculus, read-out: Inhibition of nicotine lethality ED50
Method: (5) Inhibition of nicotine spasm
The test is carried out on mice according to Stone.

yohimbine toxicity = experiment: animal or person; format: in vivo; conditions: for Therapeutical index (potentiation of yohimbine toxicity): LD50 and ED50 yohimbine toxicity, mice; for ED50: Mus musculus, ip, read-out: Potentiation of yohimbine toxicity ED50
Method: (4) Yohimbine toxicity test on mice.
The examination is performed according to Quinton's method. Each group of animals consisting of 10 mice are treated with the compounds to be tested and the vehicle without active agent, respectively. After one hour a sublethal dosage of yohimbine in a volume of 20 ml/kg body weight is administered to the test groups, intraperitoneally. The number of the dead animals is recorded 1 and 24 hours after the administration of yohimbine.

acetic acid writhing = experiment: animal or person; format: in vivo; conditions: for Therapeutical index (analgesic effect, writhing test): LD50 and ED50 writhing test, mice; for ED50: Mus musculus, ip, read-out: Analgesic effect (writhing test) ED50
Method: (9) Analgesic effect on mice (writhing test)
The test is carried out on mice according to the modified method of Newbould. 0.75 percent acetic acid is administered to the animals in a volume of 20 ml/kg, intraperitoneally, and the characteristic "writhing reactions" are counted for a period of 5 minutes, starting from the fifth minute after challenge. […] The inhibition relative to the control group is evaluated in percentage.

Reserpine ptosis = experiment: animal or person; format: in vivo; conditions: for Therapeutical index (reserpine ptosis antagonism): LD50 and ED50 reserpine ptosis, mice; for ED50: Mus musculus, sc, 1 h, read-out: Reserpine ptosis antagonism ED50
Method: (3) Reserpine ptosis antagonism on mice
Each group consisting of 10 mice are treated with 6 mg/kg of reserpine, subcutaneously. […] The animals with ptosis are counted 60 and 120 minutes after the administration of the compounds to be tested. Evaluation is carried out as given under point (2) above.

Tetrabenazine ptosis = experiment: animal or person; format: in vivo; conditions: for Therapeutical index (tetrabenazine ptosis antagonism): LD50 and ED50 tetrabenazine ptosis, mice; for ED50: Mus musculus, po, read-out: Tetrabenazine ptosis antagonism ED50
Method: (2) Tetrabenazine ptosis antagonism on mice
The tetrabenazine ptosis antagonism of the compounds are tested on groups consisting of 10 mice each. […] 30 minutes after the introduction of the active agent or the vehicle, 50 mg/kg of tetrabenazine (3-isobutyl-9,10-[…]-1,2,3,4,6,7-hexahydrobenzo[a]quinolizine-2-one) are administered, intraperitoneally, and the animals with ptosis are counted 30, 60, 90 and 120 minutes after the administration of the tetrabenazine.
Evaluation: the average ptosis value is calculated in each group, and the deviation from the average obtained for the control group (inhibition) is given in percentage. From the data obtained ED50 values are calculated.

in vivo = conditions: mouse, mice, 7 days observation, Litchfield-Wilcoxon
Method: (1) Acute toxicity on mice
The acute toxicity is determined on mice of both sex (CFLP breed, body weight 18 to 22 g). For each dosis 6 animals are employed. The compounds tested are administered orally in a volume of 20 ml/kg body weight. After the administration the animals are observed for 7 days. During this period the animals are fed with standard mouse feed and water ad libitum. The toxicity values are determined according to Litchfield-Wilcoxon's method.

maximum electroshock = experiment: animal or person; format: in vivo; conditions: for Therapeutical index (inhibition of maximum electroshock): LD50 and ED50 electroshock, mice; for ED50: Mus musculus, po, read-out: Inhibition of maximum electroshock ED50
Method: (7) Maximum inhibition of electroshock
The examination is carried out on mice weighing 20 to 25 g according to Swinyard. Electroshocks having the parameters of 50 Hz, 45 mA and 0.4 sec are employed by means of corneal electrodes. The complete inhibition of the tonic spasm of the lower limb extensor is taken as the criterium of the anticonvulsive action.

intestinal peristalsis = experiment: animal or person; format: in vivo; conditions: for Therapeutical index (inhibition of intestinal peristalsis): LD50 and ED50 intestinal peristalsis, mice; for ED50: Mus musculus, po, read-out: Inhibition of intestinal peristalsis ED50
Method: (8) Antiperistaltic effect on mice
The antiperistaltic effect of the compounds is examined on mice weighing 20 to 25 g according to the method of Stickney and co-workers. Each dosis of the compound to be tested is administered, orally, 60 minutes prior to the administration of a 10 percent carbon suspension. […] 20 minutes after the administration of the carbon suspension, the animals are sacrificed, and the length of the entire small intestine as well as that of the small intestine filled with carbon are determined. The inhibition in relation to the control is calculated in percentage. […] From the values thus-transformed ED50 values are calculated.

pentatetrazole spasm = experiment: animal or person; format: in vivo; conditions: for Therapeutical index (inhibition of pentatetrazole spasm): LD50 and ED50 pentatetrazole spasm, mice; for ED50: Mus musculus, po, read-out: Inhibition of pentatetrazole spasm ED50
Method: (6) Inhibition of pentatetrazole spasm
The test is performed on mice according to a modified method of Banziger and Hane.

narcosis = experiment: Potentiation of narcosis; conditions: for Therapeutical index (potentiation of narcosis): LD50 and ED50 narcosis; for ED50: read-out: Potentiation of narcosis ED50
[1] = mice, oral, 1 hour before 1.4 mg/kg i.v. nicotine

Structure (SMILES)	Therapeutical index (inhibition of nicotine lethality) (nicotine lethality; mice)	ED50 (nicotine lethality; [1]) [mg/kg]	Therapeutical index (potentiation of yohimbine toxicity) (yohimbine toxicity)	ED50 (yohimbine toxicity) [mg/kg]	Therapeutical index (analgesic effect, writhing test) (acetic acid writhing)	ED50 (acetic acid writhing) [mg/kg]	Therapeutical index (reserpine ptosis antagonism) (Reserpine ptosis)	ED50 (Reserpine ptosis) [mg/kg]	Therapeutical index (tetrabenazine ptosis antagonism) (Tetrabenazine ptosis)	ED50 (Tetrabenazine ptosis) [mg/kg]	LD50 at 168 h (in vivo; oral) [mg/kg]	Therapeutical index (inhibition of maximum electroshock) (maximum electroshock)	ED50 (maximum electroshock) [mg/kg]	Therapeutical index (inhibition of pentatetrazole spasm) (pentatetrazole spasm)	ED50 (pentatetrazole spasm) [mg/kg]	LD50 at 168 h (in vivo; po) [mg/kg]	other results
CCS(=O)(=O)O.CCS(=O)(=O)O.N=C1SCCN1c1ccc(Cl)cc1N [Compound 8, 3-(2-amino-4-chlorophenyl)-2-iminothiazolidine di(ethanesulfonate)]	83.3	12	45.5	22	5.9	170	50	20	667	1.5	1000	12.5	80	71.4	14	–	Therapeutical index (inhibition of intestinal peristalsis) (intestinal peristalsis): 10.5; ED50 (intestinal peristalsis): 95 mg/kg
Cl.Cl.N=C1SCCN1c1ccc(Cl)cc1N [Compound 1, 3-(2-amino-4-chlorophenyl)-2-iminothiazolidine dihydrochloride]	5.6	–	–	–	–	–	14	50	39	18	700	10	70	31.8	22	–	ED50 (nicotine lethality; po): 25 mg/kg
Cl.Cl.N=C1SCCN1c1cc(Cl)ccc1N [Compound 2, 3-(2-amino-5-chlorophenyl)-2-iminothiazolidine dihydrochloride]	–	–	16	50	18.6	43	–	–	32	25	–	–	–	10.2	78	800	–
Cc1ccc(N2CCSC2=N)c(N)c1 [Compound 13, 3-(2-amino-4-methylphenyl)-2-iminothiazolidine]	130	10	25	52	8.1	160	18.5	70	–	–	–	–	–	–	–	1300	–
CN(C)CCC=C1c2ccccc2CCc2ccccc21 [Amitriptylin, reference compound]	–	–	18	12.5	–	–	3.5	65	18.7	12	–	–	–	–	–	–	–
CCCC(C)(COC(N)=O)COC(N)=O [Meprobamate, reference compound]	–	–	–	–	–	–	–	–	–	–	1100	–	–	–	–	–	Therapeutical index (potentiation of narcosis) (narcosis): 4.2; ED50 (narcosis): 260 mg/kg
CC1CN(c2ccc(Cl)cc2N)C(=N)S1.CCS(=O)(=O)O (stereo not shown) [Compound 12, 3-(2-amino-4-chlorophenyl)-2-imino-5-methylthiazolidine ethanesulfonate]	100	6	13.3	45	17.7	34	–	–	83	7.2	–	30	12	40	15	–	Therapeutical index (potentiation of narcosis) (narcosis): 14.0; ED50 (narcosis): 41 mg/kg
CC1CSC(=N)N1c1ccc(Cl)cc1N.Cl.Cl (stereo not shown) [Compound 3, 3-(2-amino-4-chlorophenyl)-2-imino-4-methylthiazolidine dihydrochloride]	31.3	6.4	–	–	–	–	67	3	67	3	–	14.2	14	25.6	7.8	200	–
N=C1SCCN1c1ccc(N)cc1 [Compound 14, 3-(4-aminophenyl)-2-imino-1,3-thiazolidine]	–	–	20.0	20	–	–	–	–	–	–	–	–	–	–	–	400	Therapeutical index (inhibition of intestinal peristalsis) (intestinal peristalsis): 4.4; ED50 (intestinal peristalsis): 50 mg/kg
CN1C(=O)OC(C)(C)C1=O [Trimethadion, reference compound]	–	–	–	–	–	–	–	–	–	–	2050	–	400	–	490	–	–
